Measurements: ChEMBL document CHEMBL5137117, “Cytotoxic Cyclotides from Anchietea pyrifolia, a South American Plant Species” (J Nat Prod, 2022)
Bridge positions count the residues as written; N and C are the ends. Peptide text beside a SMILES is read from it.

Legend:
[1] = Cytotoxicity against human HCT116-p53-null cells assessed as inhibition of cell growth measured after 72 hrs by MTT assay; type: functional, cell-based
[2] = test system: MCF7; test: Cytotoxicity against human MCF7 cells assessed as inhibition of cell growth measured after 72 hrs by MTT assay; type: functional, cell-based; conditions: MCF7, 72 h
[3] = test system: HCT-116; test: Cytotoxicity against human HCT-116 cells assessed as inhibition of cell growth measured after 72 hrs by MTT assay; type: functional, cell-based; conditions: HCT-116, 72 h
[4] = Hemolytic activity in human red blood cells incubated for 2 hrs by microplate reader assay; type: toxicity, cell-based, Erythrocyte; conditions: red blood cells (erythrocytes), read-out: HD50
[5] = Hemolytic activity in human red blood cells at 78 uM incubated for 2 hrs by microplate reader assay relative to control; type: toxicity, cell-based, Erythrocyte; conditions: red blood cells (erythrocytes), read-out: Activity

| SMILES | IC50 [1] [nM] | IC50 [2] [µM] | IC50 [3] [nM] | HC50 at 2 h [4] [µM] | hemolysis at 2 h, 78 µM [5] [%] |
| --- | --- | --- | --- | --- | --- |
| CC[C@H](C)[C@@H]1NC(=O)[C@H](C)NC(=O)[C@H]([C@@H](C)O)NC(=O)[C@H](C(C)C)NC(=O)[C@H]([C@@H](C)O)NC(=O)[C@@H]2CSSC[C@@H]3NC(=O)[C@H](C(C)C)NC(=O)[C@H](CCCCN)NC(=O)[C@H](CO)NC(=O)[C@H](CCCCN)NC(=O)[C@@H]4CSSC[C@H](NC(=O)[C@H](CO)NC(=O)[C@H](CCC(=O)O)NC(=O)CNC(=O)[C@H](CSSC[C@H](NC(=O)CNC(=O)[C@H]([C@@H](C)CC)NC1=O)C(=O)N[C@@H](CO)C(=O)N4)NC(=O)[C@@H]1CCCN1C(=O)[C@H](CC(C)C)NC(=O)CNC(=O)[C@H](CC(N)=O)NC(=O)[C@H](CCCCN)NC(=O)[C@H](Cc1ccc(O)cc1)NC3=O)C(=O)N[C@@H](C(C)C)C(=O)N[C@@H](Cc1ccccc1)C(=O)N[C@@H](CC(C)C)C(=O)N1CCC[C@H]1C(=O)N2 (cyclo(AIIGCSCKSKVCYKNGLPCGESCVFLPCTVT); disulfide 5-19, 7-23, 12-28) | 1300 | 5.8 | 1100 |  |  |
| CC[C@H](C)[C@@H]1NC(=O)CNC(=O)[C@H](CO)NC(=O)[C@H]([C@@H](C)CC)NC(=O)[C@@H]2CSSC[C@@H]3NC(=O)[C@H](C(C)C)NC(=O)[C@H](CCCCN)NC(=O)[C@H](CC(N)=O)NC(=O)[C@H](CO)NC(=O)[C@@H]4CSSC[C@H](NC(=O)[C@H](CO)NC(=O)[C@H](CCC(=O)O)NC(=O)CNC(=O)[C@H](CSSC[C@H](NC(=O)CNC(=O)[C@H](CC(C)C)NC1=O)C(=O)N[C@@H](CO)C(=O)N4)NC(=O)[C@@H]1CCCN1C(=O)[C@H](C(C)C)NC(=O)[C@H](CO)NC(=O)CNC(=O)[C@H](CC(N)=O)NC(=O)[C@H](Cc1ccc(O)cc1)NC(=O)[C@H](Cc1ccc(O)cc1)NC3=O)C(=O)N[C@@H](C(C)C)C(=O)N[C@@H](Cc1c[nH]c3ccccc13)C(=O)N[C@@H]([C@@H](C)CC)C(=O)N1CCC[C@H]1C(=O)N2 (cyclo(CGESCVWIPCISGILGCSCSNKVCYYNGSVP); disulfide 1-17, 5-19, 10-24) | 2600 | 5.1 | 2300 | 22 | 87 |
| COc1cccc2c1C(=O)c1c(O)c3c(c(O)c1C2=O)C[C@@](O)(C(=O)CO)C[C@@H]3O[C@H]1C[C@H](N)[C@H](O)[C@H](C)O1 [DOXORUBICIN] |  | 0.5 |  |  |  |
| CC[C@H](C)[C@@H]1NC(=O)[C@H](C)NC(=O)[C@H](C)NC(=O)[C@H](CO)NC(=O)[C@H]([C@@H](C)CC)NC(=O)[C@@H]2CSSC[C@@H]3NC(=O)[C@H](C(C)C)NC(=O)[C@H](CCCCN)NC(=O)[C@H](CC(N)=O)NC(=O)[C@H](CCCCN)NC(=O)[C@@H]4CSSC[C@H](NC(=O)[C@H](CO)NC(=O)[C@H](CCC(=O)O)NC(=O)CNC(=O)[C@H](CSSC[C@H](NC(=O)CNC1=O)C(=O)N[C@@H](CO)C(=O)N4)NC(=O)[C@@H]1CCCN1C(=O)[C@H]([C@@H](C)CC)NC(=O)CNC(=O)[C@H](CC(N)=O)NC(=O)[C@H](CCCNC(=N)N)NC(=O)[C@H](Cc1ccc(O)cc1)NC3=O)C(=O)N[C@@H](C(C)C)C(=O)N[C@@H](Cc1c[nH]c3ccccc13)C(=O)N[C@@H]([C@@H](C)CC)C(=O)N1CCC[C@H]1C(=O)N2 (cyclo(AAIGCSCKNKVCYRNGIPCGESCVWIPCIS); disulfide 5-19, 7-23, 12-28) | 1200 | 5.6 | 800 | > 156 | 23 |
| CC[C@H](C)[C@@H]1NC(=O)[C@H](CO)NC(=O)[C@H](CC(N)=O)NC(=O)[C@H](CCCCN)NC(=O)[C@H](Cc2ccc(O)cc2)NC(=O)[C@@H]2CSSC[C@@H]3NC(=O)[C@@H]4CCCN4C(=O)[C@H]([C@@H](C)CC)NC(=O)[C@H](Cc4c[nH]c5ccccc45)NC(=O)[C@H](C(C)C)NC(=O)[C@@H]4CSSC[C@H](NC(=O)[C@H](CO)NC(=O)[C@H](CSSC[C@H](NC(=O)[C@@H]5CCCN5C1=O)C(=O)NCC(=O)N[C@@H](CCC(=O)O)C(=O)N[C@@H](CO)C(=O)N4)NC(=O)CNC(=O)[C@H](C)NC(=O)[C@H](CC(C)C)NC(=O)[C@H](C)NC(=O)[C@H]([C@@H](C)O)NC(=O)[C@H](C(C)C)NC(=O)[C@H]([C@@H](C)O)NC3=O)C(=O)N[C@@H](CCCCN)C(=O)N[C@@H](CC(N)=O)C(=O)N[C@@H](CCCCN)C(=O)N[C@@H](C(C)C)C(=O)N2 (cyclo(AGCSCKNKVCYKNSIPCGESCVWIPCTVTAL); disulfide 3-17, 5-21, 10-26) | 2300 | 7.3 | 1400 | > 78 | < 50 |
| CC[C@H](C)[C@@H]1NC(=O)[C@H](C)NC(=O)[C@H](CO)NC(=O)[C@H](CO)NC(=O)[C@H]([C@@H](C)CC)NC(=O)[C@@H]2CSSC[C@@H]3NC(=O)[C@H](C(C)C)NC(=O)[C@H](CCCCN)NC(=O)[C@H](CC(N)=O)NC(=O)[C@H](CCCCN)NC(=O)[C@@H]4CSSC[C@H](NC(=O)[C@H](CO)NC(=O)[C@H](CCC(=O)O)NC(=O)CNC(=O)[C@H](CSSC[C@H](NC(=O)CNC1=O)C(=O)N[C@@H](CO)C(=O)N4)NC(=O)[C@@H]1CCCN1C(=O)[C@H]([C@@H](C)CC)NC(=O)CNC(=O)[C@H](CC(N)=O)NC(=O)[C@H](CCCNC(=N)N)NC(=O)[C@H](Cc1ccc(O)cc1)NC3=O)C(=O)N[C@@H](C(C)C)C(=O)N[C@@H](Cc1c[nH]c3ccccc13)C(=O)N[C@@H]([C@@H](C)CC)C(=O)N1CCC[C@H]1C(=O)N2 (cyclo(AIGCSCKNKVCYRNGIPCGESCVWIPCISS); disulfide 4-18, 6-22, 11-27) | 2100 | 7.1 | 1400 | > 156 |  |
